Legend:
Panx1 [1] = target: T1, Panx1 (Mus musculus, UniProt Q9JIP4); test: Whole-cell patch clamp of CBX-sensitive Panx1 current in HEK293 cells cotransfected with mPanx1 and α1DAR; assay type: cell-based; details: CBX 50 μmol/L after phenylephrine, +80 mV
T1 construct: we progressively substituted amino acids in this region of full-length Panx1 with alanine residues; HA; expressed in transfected cells; host or cells: HEK293T cells, transient co-transfection with alpha1DAR plasmid (Origene, NM_013460, C-terminal Myc-DDK)
Protocol: Human Embryonic Kidney (HEK) 293T cells were cultured as previously described, and were used until passage 20. For ATP measurements, 50,000 cells/well were seeded in 24 well plates pre-coated with 0.01% poly-L-lysine, and transfected using Lipofectamine 2000 (Invitrogen) according to the manufacturer protocol. Briefly, 0.4 μg of α1DAR and 0.4 μg of Panx1^WT, Panx1^KYP>AAA, Panx1^IVEQ>AAA or Panx1^YLK>AAA plasmids were added to each well along with 2 μl of Lipofectamine 2000. For electrophysiology measurements, 4 μg of α1DAR plasmid, 2 μg of Panx1^WT, Panx1^KYP>AAA, Panx1^IVEQ>AAA or Panx1^YLK>AAA plasmids, and 0.5 μg of GFP plasmid were mixed with 10 μl Lipofectamine 2000 and added to a well of 6-well plate seeded with ˜70% confluent HEK cells. Cells were split the next morning and plated onto a glass coverslip for recording. ATP measurements and whole-cell recordings were performed 24 hours after transfection.
Whole-cell recordings were obtained at room temperature from transiently transfected HEK293T cells using Axopatch 200B amplifier (Molecular Devices) in a bath solution composed of 140 mmol/L NaCl, 3 mmol/L KCl, 2 mmol/L MgCl2, 2 mmol/L CaCl2, 10 mmol/L HEPES and 10 mmol/L glucose (pH 7.3). Patch pipettes (3-5 MΩ) were filled with a Cs-/TEA-based internal solution, as previously described. Ramp voltage commands with 7-s intervals were applied using pCLAMP software and Digidata1322A digitizer (Molecular Devices). Peak whole-cell currents were determined at +80 mV and normalized to cell capacitance. Current mediated by Panx1 was defined by its sensitivity to carbenoxolone (CBX). In this system, no CBX-sensitive current is observed in HEK293T cells without Panx1. Basal current was recorded for approximately two minutes and PE (20 μmol/L) was applied to the bath solution, which was followed by addition of CBX (50 μmol/L). When indicated, cells were pre-incubated with bath solution containing IL2 peptide or its scrambled version at room temperature for 40-60 minutes prior to the experiment. The effect of PE on Panx1 current was quantified relative to CBX-sensitive basal current, and data was expressed as percent increase in CBX-sensitive current. All experiments were performed on 8 to 22 cells for each conditions tested. Data were analyzed using a Kruskall Wallis test (non-parametric one-way ANOVA) followed by Dunn's post-hoc test.
To test if α1AR stimulation triggered opening of the Panx1 channel and the importance of the region represented by the IL2 peptide, we cotransfected mPanx1 and α1DAR into HEK293 cells and monitored whole-cell currents by patch clamp electrophysiology.

[2] = system: thoracodorsal arteries (TDA); test: Pressure myography: agonist-induced constriction of pressurized TDAs from C57Bl/6 mice with pannexin inhibitors or Panx1 mimetic peptides; assay type: cell-based, mouse
Protocol: The contractile responses of pressurized thoracodorsal arteries (TDA) were measured as previously described. Briefly, TDA were isolated and placed in cold Krebs-HEPES until cannulation in a pressure arteriograph (Danish MyoTechnology). After a 30 minute equilibration period, cumulative concentrations of contractile agonists were applied to the TDA pressurized at 80 mmHg, and the vessel was visualized with an Olympus IX-71 microscope attached to a Hamamatsu EM-CCD camera coupled to Slidebook imaging software. […] Lastly, maximal diameter was measured at the end of each experiment in calcium-free Krebs-HEPES supplemented with EGTA (1 mmol/L) and sodium nitroprusside (10 μmol/L). In cases where the vessels were not constricting to the contractile agonist, their viability was assessed by applying 40 mM KCl and only TDA reaching 30% of the maximal diameter were considered for analysis. The contractile responses, as well as the basal tone, are expressed as a percentage of the maximal diameter.
Using pressure arteriography on TDA dissected from C57Bl/6 mice (as described; and aortic ring contraction, as described), we measured the effect of pannexin inhibitors, probenecid and 10Panx1, on the contractile response upon stimulation with different vasoconstrictors: phenylephrine (FIG. 1A), noradrenaline (also called norepinephrine) (FIG. 1B), serotonin (also known as 5-HT) (FIG. 1C) and endothelin-1 (FIG. 1D). […] In contrast, ^10Panx1 and probenecid had no effect on contraction of TDA measured in response to cumulative concentrations of serotonin or endothelin-1 (FIGS. 1C-D; Table 1).
To determine the region of Panx1 necessary for channel activation in response to α1AR stimulation, we produced short peptides derived from the intracellular regions of the Panx1 channel. We generated two peptides mimicking unique mouse Panx1 (mPanx1) sequences in the first intracellular loop (IL1 and IL2) and two peptides mimicking unique mPanx1 sequences in the C-terminal region, one in second intracellular loop (CT1) and one in the C-terminal tail (CT2) (FIG. 4A scissors indicate caspase 3 cleavage site; Table 3). All peptides also contained a TAT sequence to facilitate entry into cells and we verified the intracellular localization of each peptide by immunofluorescence detection of the TAT sequence in TDAs pre-incubated with each peptide (FIG. 7A). We tested the effect of each peptide on phenylephrine-induced contractile responses in pressurized TDAs from C57Bl/6 mice (FIGS. 4B-E). […] Note that these differences in effects of phenylephrine were similar in magnitude to those observed in arteries from SMC-specific Panx1-knockout mice and littermate controls (FIG. 2C, Table 2).

Panx1 [3] = target: T2, Panx1 (Homo sapiens, UniProt Q96RD7); details: neurons; cited from earlier work
Target sequence in this assay (Q96RD7 whole entry, species assumed): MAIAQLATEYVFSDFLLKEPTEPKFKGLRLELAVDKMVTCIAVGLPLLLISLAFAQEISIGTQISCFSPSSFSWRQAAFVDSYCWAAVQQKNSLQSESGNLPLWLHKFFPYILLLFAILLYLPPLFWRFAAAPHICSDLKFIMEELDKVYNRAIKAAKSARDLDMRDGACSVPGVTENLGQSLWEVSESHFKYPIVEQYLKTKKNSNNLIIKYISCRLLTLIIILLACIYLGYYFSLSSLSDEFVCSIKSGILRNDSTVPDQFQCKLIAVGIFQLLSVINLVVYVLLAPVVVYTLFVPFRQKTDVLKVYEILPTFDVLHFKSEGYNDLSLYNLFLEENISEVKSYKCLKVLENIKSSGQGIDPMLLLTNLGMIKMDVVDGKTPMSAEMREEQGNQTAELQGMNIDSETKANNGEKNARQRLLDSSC

Cre/Panx1 mice = test: Blood pressure by radiotelemetry before and after tamoxifen in the conditional KO mouse model; assay type: in vivo
Protocol: Blood pressure was measured using radiotelemetry units (Data Sciences International, DSI) implanted in C57Bl/6, Cre^−/Panx1^F1, Cre^−/Panx1^WT, Cre^+/Panx1^WT, and Cre^+/Panx1^F1 mice. The catheter of a radiotelemetry unit (TA11PA-C10, DSI) was implanted in the mouse left carotid artery under isoflurane anesthesia, and the catheter was tunneled trough the radiotransmitter placed in a subcutaneous pouch along the right flank of the mouse, as previously described. After implantation, mice were allowed to recover for seven days.
For experiments on the conditional KO mouse model: blood pressure was measured using Dataquest A.R.T. 20 software (DSI) for five days before proceeding to tamoxifen injections at 1 mg/kg for ten days. Blood pressure was recorded for another five days 24 hours after the last tamoxifen injection. The change in mean arterial pressure (ΔMAP) was calculated by subtracting the average MAP measured for five days before tamoxifen injections to the mean arterial pressure measured for five days after the tamoxifen injections. […]
Based on the central role of α1AR signaling in blood pressure homeostasis, we evaluated the effect of Panx1 deletion on systemic blood pressure. Blood pressure was measured using radiotelemetry units as previously described by us. Blood pressure was measured on the conditional KO mouse model for five days before proceeding to tamoxifen injections, and for another five days 24 hours after the last tamoxifen injection. The change in mean arterial pressure (ΔMAP) was calculated by subtracting the average MAP measured for five days before tamoxifen injections to the MAP measured for five days after the tamoxifen injections. Day MAP was measured during the light cycle (06:00-18:00), while night MAP was measured during the nocturnal cycle (18:00 to 06:00). For experiments on C57Bl/6, basal blood pressure was measured continuously for 30 minutes before intraperitoneal injection of saline solution or peptide, and for 1.5 hours after the injection. […]

Panx1 [4] = target: T2, Panx1; details: cited from earlier work
Target sequence in this assay (Q96RD7 whole entry): as the sequence (Q96RD7 whole entry, species assumed) above

[5] = system: anaesthetized guinea pigs; details: injected into anaesthetized guinea pigs; cited from earlier work

T1 sequence (Q9JIP4 whole entry): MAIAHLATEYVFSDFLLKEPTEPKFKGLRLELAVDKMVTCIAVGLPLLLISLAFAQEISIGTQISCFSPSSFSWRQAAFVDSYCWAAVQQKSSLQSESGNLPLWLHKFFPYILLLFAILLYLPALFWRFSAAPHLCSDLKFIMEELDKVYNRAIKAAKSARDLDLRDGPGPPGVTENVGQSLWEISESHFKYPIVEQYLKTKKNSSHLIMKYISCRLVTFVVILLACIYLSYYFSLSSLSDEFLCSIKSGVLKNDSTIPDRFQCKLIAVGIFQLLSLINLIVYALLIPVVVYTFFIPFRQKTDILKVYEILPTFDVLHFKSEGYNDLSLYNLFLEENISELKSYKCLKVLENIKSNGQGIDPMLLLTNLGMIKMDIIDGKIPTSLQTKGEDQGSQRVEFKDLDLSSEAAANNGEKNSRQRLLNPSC

CC1(C)[C@@H](OC(=O)CCC(=O)O)CC[C@]2(C)[C@H]3C(=O)C=C4[C@@H]5C[C@@](C)(C(=O)O)CC[C@]5(C)CC[C@@]4(C)[C@]3(C)CC[C@@H]12 [CBX, carbenoxolone]
effect on Panx1 whole-cell current (Panx1 [1]): abolished the current

mPanx1 305-RRLKVYEILPTFDVLH-318 (SEQ ID NO: 5) linked with TAT; previously published to inhibit NMDA-mediated Panx1 opening [CT1]
effect on phenylephrine-induced constriction of pressurized TDAs ([2]; TAT-linked peptides, C57Bl/6 TDAs): did not affect | EMAX of phenylephrine for TDA constriction ([2]; in presence of the named peptide): 50.7 ± 9.08 percentage of maximal diameter | effect on NMDA-induced Panx1 activation (Panx1 [3]): prevent

CC/C(=C(\c1ccccc1)c1ccc(OCCN(C)C)cc1)c1ccccc1 [tamoxifen]
heart rate (Cre/Panx1 mice; Cre^+/Panx1^Fl mice, after tamoxifen): 549±7 beats per min | decrease of mean arterial blood pressure (Cre/Panx1 mice; Cre^+/Panx1^Fl mice, tamoxifen 1 mg/kg i.p. for ten days (induces SMC Panx1 deletion)): 4.6±2.1 mmHg | change of mean arterial blood pressure (Cre/Panx1 mice; mice retaining Panx1 (Cre^−/Panx1^WT, Cre^−/Panx1^Fl, Cre^+/Panx1^WT)): no evident changes

N[C@@H]1[C@H]2CN(c3nc4c(cc3F)c(=O)c(C(=O)O)cn4-c3ccc(F)cc3F)C[C@@H]12 [Trovafloxacin]
inhibition of Panx1 channels (Panx1 [4]): can also inhibit Panx1 channels

OC(c1cc(C(F)(F)F)nc2c(C(F)(F)F)cccc12)C1CCCCN1 (stereo not drawn) [mefloquine]
effect on blood pressure [5]: induces hypotension

— patent US10314883B2, “Compositions and methods for regulating blood pressure” (University of Virginia Patent Foundation, priority 2015, dated 2019)
